Values after ≈ are worked out from the molar mass of the structure shown.
System: kinetic aqueous solubility, PBS pH 7.4, LC-UV/MS
Test: Inhibitors of HPGD: Aqueous Solubility Profiling
Settings: active compounds read high

Compound | solubility
Cc1cccc(-n2cnc3cc(C(=O)N4CCCCC4)ccc32)c1 | 3 µM (≈ 0.958 µg/mL)
Cc1cc(-c2nnc3n2CCCCC3)c(C)n1-c1ccccc1 | 35.9 µM (≈ 11 µg/mL)
